From patent publication US20080200526A1, “Composition for the Prevention and Treatment of Allergic Inflammatory Disease” (priority 2004, published 2008)

Assays:
bronchial asthma = settings: Sakurada T. et al., Eur J Pharmacol 1999, cited from earlier work
[1] = test system: mouse models of ovalbumin-induced asthma; assay: Fractional count of cellular components of bronchoalveolar lavage fluid; type: in vivo; settings: 18 days, mean ± SD
Procedure: (§1) The benzamidine compound of Chemical Formula 1 was assayed for therapeutic effect on allergic inflammation in mouse models of ovalbumin-induced asthma. Starting at the sensitization with ovalbumin, the administration of the benzamidine compound was for 18 consecutive days. The experimental animals were re-exposed to ovalbumin 15 days after the sensitization and then sacrificed 3 days after the re-exposure. Changes in lung weight, cellular components of peripheral blood and bronchoalveolar lavage fluid, and lung histopathology were observed.
(§2) A total of 20 female C57BL/6 mice (6-week-old, BioGenomics, Korea) was adapted to a laboratory environment for 6 days before being used in earnest experiments. While being housed at a density of five in a plastic cage, the experimental animals were bred in a breeding room with controlled temperature (20 to 25° C.) and humidity (30 to 35%). Under light-dark cycles of 12 hours, mice were allowed to have free access to feedstuff and tap water. While asthma was induced in 15 mice by ovalbumin, 5 mice were used as a non-treated group.
(§3) 100 mg and 200 mg of N-hydroxy-4-{5-[4-(5-isopropyl-2-methyl-1,3-thiazol-4-yl)phenoxy]pentoxy}-benzamidine were completely dissolved in 5 ml of sterilized distilled water. The benzamidine compound in the solutions was orally administered at doses of 100 mg and 200 mg per kg of body weight once a day from the day of the sensitization with ovalbumin. The control group was administered with equal volumes of sterilized distilled water in the same manner.
(§4) A solution of 200 μg of ovalbumin (Grade V; Sigma, St. Louis, Mo., USA) and 180 mg of aluminum hydroxide (Al(OH)3, dried powder gel; Aldrich, Milwaukee, USA) in 4 ml of physiological saline was allowed to stand at 4° C. overnight and was administered to the experimental animals (200 μl, abdominal injection) for sensitization. As for the non-treated group, a solution of only aluminum hydroxide in saline was injected. 15 days after sensitization, a 1.5% ovalbumin solution was sprayed in air using a nebulizer, followed by exposing the experimental animals to the spray for 10 min to induce asthma therein. The non-treated group was exposed only to saline in the same manner. All the experimental animals were sacrificed 3 days after the exposure.
On the final day of experiment, secretions present in bronchi and alveola were examined for cytological constitution. To this end, after being etherized, the experimental animals were operated to open the cervical region and the thorax. The jugular vein was allowed to bleed, followed by endotracheal intubation. 3 ml of phosphate buffered saline was injected twice through the tube and the thorax was massaged for 30 sec to obtain cell suspension from the lungs. The cell suspension was centrifuged at 3000 rpm for 30 min and resuspended in DPBS (Gibco BRL, NY, USA). After the cell suspension was smeared on a slide glass, the cells were stained with Giemsa. A total count of the whole cells present in the smear and fractional counts of neutrophils, eosinophils, basophils, macrophages, and epithelioid cells were measured and are given in Table 4, below.

[2] = Change in body weight gain, mouse model of ovalbumin-induced asthma; type: in vivo; settings: mean ± SD, in g (unit assumed)
Procedure: as §1, §2, §3, §4
All the experimental animals were measured for body weight 1, 7, 14, 16 and 17 days after administration. In order to reduce difference among individuals due to feedstuff intake, all experimental animals were starved for 18 hours or more on the beginning day of the administration and on the sacrificing day before weight measurement. To minimize the difference of change in body weight of individual animals, body weight gains during time periods of the sensitization, the asthma induction after exposure and the whole experiment were calculated.

[3] = test system: mouse models of ovalbumin-induced asthma; assay: Lung histopathological observation and histomorphology; type: in vivo; settings: for Alveolar Area (proportion of alveolar lumen in lung tissue) / Counts of goblet Cells Brochiole / Counts of goblet Cells Bronchus / Wall Thick. Brochiole / Wall Thick. Bronchus: 18 days, mean ± SD
Procedure: as §1, §2, §3, §4
The lungs removed after asthma induction were fixed in 10% neutral formalin and embedded in paraffin. The paraffin-embedded tissue was sliced at a thickness of 3 to 4 μm, stained with hematoxylin-eosin or Masson's trichrome and observed through an optical microscope.
From the lung tissue specimen prepared above, alveolar areas (proportion of alveolar lumen in lung tissue), populations of the goblet cells present in the bronchus and the bronchiole, and wall thicknesses of the bronchus and the bronchiole were examined using an analysis Image processing system (SIS Germany). The alveolar areas are represented as percentages, the populations of the goblets cells in the bronchus and bronchiole as counts per 1,000 cells, and the wall thickness of the bronchus and bronchiole in μm in Table 5.

[4] = test system: mouse models of ovalbumin-induced asthma; assay: Lung weight, mouse model of ovalbumin-induced asthma; type: in vivo; settings: 18 days, mean ± SD; for Lung Relative Wt.: percentage of body weight
Procedure: as §1, §2, §3, §4
On the final day of experiment, the lungs were separated from adjacent organs. The removed lungs were weighed in grams. To minimize errors due to the difference in body weight among individual animals, the relative weight of the lungs was calculated as a percentage of body weight using the following mathematic formula 1.

[5] = test system: mouse models of ovalbumin-induced asthma; assay: Total count of leukocytes in blood and fractional calculation of leukocytes; type: in vivo; settings: 18 days; for Total leukocytes in blood: mean ± SD; for Basophils in blood / Eosinophils in blood / Lymphocytes in blood / Monocytes in blood / Neutrophils in blood: portion per 200 leukocytes
Procedure: as §1, §2, §3, §4
On the final day of experiment, all the experimental animals were etherized and underwent laparotomy to expose the abdominal vena cava, from which 1 ml of blood was then taken. Using a hemocytometer, a blood sample was measured for total leukocyte counts in a ×10^3/1 mm^3 unit. Immediately after blood collection, the blood sample was smeared on slide glasses, fixed with methanol, and stained with Giemsa. And then, lymphocytes, eosinophils, neutrophils, monocytes, and basophils were calculated for their respective portions per 200 leukocytes and are represented as percentages in Table 3, below.

asthma = settings: clinical test, Lilly; Evans D J, Thorax 1996; cited from earlier work

In the case of `COc1ccc(/C=C/CCCCOc2cccc(OCCCCC(=O)O)c2CCC(=O)O)cc1` [ONO-4057], the “Effect on bronchial asthma, in combination” value (bronchial asthma; in combination with the cysteinyl leukotriene receptor antagonist Zafirlukast) is given as “medicinal effect on bronchial asthma” and the “Effect on bronchial asthma, used alone” value (bronchial asthma; used alone) is given as “ineffective for the treatment thereof”.
In the case of `Cc1nc(-c2ccc(OCCCCCOc3ccc(C(=N)NO)cc3)cc2)c(C(C)C)s1` [Cpd. of Formula 1, N-hydroxy-4-{5-[4-(5-isopropyl-2-methyl-1,3-thiazol-4-yl)phenoxy]pentoxy}-benzamidine], the “Basophils in bronchoalveolar lavage fluid” value ([1]; 100 mg/kg orally once a day) is reported as 0.50 ± 0.50%, the “Epithelioids in bronchoalveolar lavage fluid” value ([1]; 100 mg/kg orally once a day) is reported as 21.00 ± 14.77% and the “Lymphocytes in bronchoalveolar lavage fluid” value ([1]; 100 mg/kg orally once a day) is reported as 56.90 ± 15.04%. The “Monocytes in bronchoalveolar lavage fluid” value ([1]; 100 mg/kg orally once a day) was 3.10 ± 3.73%, the “Neutrophils in bronchoalveolar lavage fluid” value ([1]; 100 mg/kg orally once a day) was 17.50 ± 8.06 % and the “eosinophils in bronchoalveolar lavage fluid” value ([1]; 100 mg/kg orally once a day) was 4.30 ± 1.44 %. For the same compound, the “Basophils in bronchoalveolar lavage fluid” value ([1]; 200 mg/kg orally once a day) was 0.10 ± 0.22 %, the “Epithelioids in bronchoalveolar lavage fluid” value ([1]; 200 mg/kg orally once a day) was 15.50 ± 9.74% and the “Lymphocytes in bronchoalveolar lavage fluid” value ([1]; 200 mg/kg orally once a day) was 56.80 ± 22.52%. For the same compound, the “Monocytes in bronchoalveolar lavage fluid” value ([1]; 200 mg/kg orally once a day) was 3.50 ± 2.57%, the “Neutrophils in bronchoalveolar lavage fluid” value ([1]; 200 mg/kg orally once a day) was 13.90 ± 9.85% and the “eosinophils in bronchoalveolar lavage fluid” value ([1]; 200 mg/kg orally once a day) was 3.60 ± 2.88 %. The “Body weight gain, Asthma induction period after exposure” value ([2]; 100 mg/kg orally once a day) was 0.34 ± 0.34, the “Body weight gain, Over whole experimental period” value ([2]; 100 mg/kg orally once a day) was 2.68 ± 0.52 and the “Body weight gain, Sensitization period” value ([2]; 100 mg/kg orally once a day) was 3.50 ± 0.51. The “Body weight gain, Asthma induction period after exposure” value ([2]; 200 mg/kg orally once a day) was 0.36 ± 0.59, the “Body weight gain, Over whole experimental period” value ([2]; 200 mg/kg orally once a day) was 2.90 ± 0.40 and the “Body weight gain, Sensitization period” value ([2]; 200 mg/kg orally once a day) was 3.08 ± 0.71. The “Alveolar Area (proportion of alveolar lumen in lung tissue)” value ([3]; 100 mg/kg orally once a day) was 55.53 ± 4.26 # percentages, the “Counts of goblet Cells Brochiole” value ([3]; 100 mg/kg orally once a day) was 53.80 ± 11.73 ## counts per 1,000 cells and the “Counts of goblet Cells Bronchus” value ([3]; 100 mg/kg orally once a day) was 317.60 ± 75.46 # counts per 1,000 cells. The “Wall Thick. Brochiole” value ([3]; 100 mg/kg orally once a day) was 27.73 ± 4.68 ## μm, the “Wall Thick. Bronchus” value ([3]; 100 mg/kg orally once a day) was 60.92 ± 8.53 # μm and the “Alveolar Area (proportion of alveolar lumen in lung tissue)” value ([3]; 200 mg/kg orally once a day) was 61.62 ± 6.93 # percentages. For the same compound, the “Counts of goblet Cells Brochiole” value ([3]; 200 mg/kg orally once a day) was 42.80 ± 10.69 # counts per 1,000 cells, the “Counts of goblet Cells Bronchus” value ([3]; 200 mg/kg orally once a day) was 256.80 ± 71.58 # counts per 1,000 cells and the “Wall Thick. Brochiole” value ([3]; 200 mg/kg orally once a day) was 24.79 ± 3.03 # μm. The “Wall Thick. Bronchus” value ([3]; 200 mg/kg orally once a day) was 40.69 ± 5.37 # μm, the “Inflammatory cell populations in tissues around the primary bronchiole and alveola and around bronchial epithelia (FIG. 1)” value ([3]; compared to the control group, 100 and 200 mg/kg, optical microscope) was “reduction of the inflammatory cell population in the tissues in a dose-dependent pattern” and the “Lung Absolute Wt.” value ([4]; 100 mg/kg orally once a day) was 0.128 ± 0.007 ## g. The “Lung Relative Wt.” value ([4]; 100 mg/kg orally once a day) was 0.697 ± 0.030 ## %, the “Lung Absolute Wt.” value ([4]; 200 mg/kg orally once a day) was 0.125 ± 0.008 # g and the “Lung Relative Wt.” value ([4]; 200 mg/kg orally once a day) was 0.682 ± 0.030 ## %. For the same compound, the “Total leukocytes in blood” value ([5]; 100 mg/kg orally once a day) was 10.68 ± 1.76 ## ×10^3/1 mm^3, the Basophils in blood ([5]; 100 mg/kg orally once a day) was 0.10 ± 0.20% and the Eosinophils in blood ([5]; 100 mg/kg orally once a day) was 49.60 ± 15.79 %. It also gave a Lymphocytes in blood ([5]; 100 mg/kg orally once a day) of 41.70 ± 12.90 %, a Monocytes in blood ([5]; 100 mg/kg orally once a day) of 3.70 ± 1.60% and a Neutrophils in blood ([5]; 100 mg/kg orally once a day) of 4.90 ± 2.90 %. For the same compound, the “Total leukocytes in blood” value ([5]; 200 mg/kg orally once a day) was 10.44 ± 1.81 ## ×10^3/1 mm^3, the Basophils in blood ([5]; 200 mg/kg orally once a day) was 0.00 ± 0.00% and the Eosinophils in blood ([5]; 200 mg/kg orally once a day) was 36.90 ± 8.33 # %. The Lymphocytes in blood ([5]; 200 mg/kg orally once a day) was 53.80 ± 5.50 # %, the Monocytes in blood ([5]; 200 mg/kg orally once a day) was 4.40 ± 1.70 % and the Neutrophils in blood ([5]; 200 mg/kg orally once a day) was 5.20 ± 2.00 %.
In the case of `CCCc1c(OCCCOc2cc(O)c(-c3ccc(F)cc3)cc2CC)cccc1Oc1ccccc1C(=O)O` [LY293111], the “Effect in treating asthma” value (asthma) is given as “ineffective in treating asthma”.
